Experimental data as given in PMC10726354, “Design, Synthesis, and Biological Evaluation of Small-Molecule-Based Radioligands with Improved Pharmacokinetic Properties for Imaging of Programmed Death Ligand 1” (Journal of Medicinal Chemistry, 2023).
Values joined by “and” are separate entries in the source; they are usually repeats but may differ in a detail not shown here. Equal values may be shown once. “Also recorded” adds a separate entry of the source.

Legend:
[1] = system: PC3 PD-L1-overexpressing tumor; experiment: Small-animal PET, uptake in PD-L1-overexpressing tumor; conditions: for SUVmax PC3 PD-L1 overexpressing tumor: tracer only; for SUVmax PC3 PD-L1 overexpressing tumor +block: blocker i.v. before tracer: Cu-1 100 nmol 1, Cu-2 100 nmol 2, Cu-3 1000 nmol 4, Cu-4 500 nmol 4, Cu-6 250 nmol 1 (~5 min prior), Cu-5 100 nmol 5 (~30 min prior)
Protocol: Changes are reported as % change of the SUVmax of the PD-L1 expressing over the respective value of the mock tumor. Similarly, the effect of blocking is reported as % change of the SUVmax of the animal injected with cold compound over that of the animal that received tracer only.
Animal experiments were performed in accordance with the guidelines of the German Regulations for Animal Welfare, approved by the Saxonian Ethical Committee for Animal Experiments (reference number DD24.1-5131/449/49). Male athymic NMRI-nude mice (Rj: NMRI-Foxn1^nu/nu, Janvier Laboratories, Le Genest-Saint-Isle, France) between 8 and 22 weeks of age were used. Under general anesthesia, [∼10% desflurane (Baxter, Deerfield, IL, USA) in 30 vol % oxygen + air] and warming, the animals were subcutaneously injected with 3–5 × 10^6 PC3-PD-L1 and PC3-mock cells [in 50 μL PBS +50 μL Matrigel (Corning, Glendale, USA)] into the right and left thigh, respectively. Tumor growth was monitored three times a week by caliper measurements, and mice with tumor sizes above 7 mm were included in the experiments.
For PET studies, general anesthesia was induced as described above. PET and X-ray computed tomography (CT) were performed in a dedicated small animal nanoScan PET/CT scanner, with four animals imaged simultaneously (Mediso, Budapest, Hungary). CT images were employed for attenuation correction and anatomical referencing. Animals received three individual scans corresponding to 0–2 h (dynamic) and 4.5 and 24 h (static) postinjection.
PD-L1 radiotracer candidates (in 300 μL sterile 0.9% NaCl/HEPES buffer, pH 6–7, between 7 and 12 MBq, molar activities > 12 GBq/μmol) were delivered over 30 s i.v. (lateral tail vein) and PET acquisition started simultaneously. For blocking condition, a defined quantity of compound (the same unlabeled compound, one from the same series or BMS-1166) was diluted in sterile saline and injected i.v. approximately 5 min prior to the radiotracer. Animals not subjected to blocking were injected with vehicle at the same time.
Three-dimensional list mode data were binned using the 400–600 keV energy window and sorted into 36 time frames (15 × 10 s, 5 × 30 s, 5 × 60 s, 4 × 300 s, 3 × 600 s, 4 × 900 s). Time frames were reconstructed using the Tera-TomoTM 3D algorithm applying a voxel size of 0.4 mm and corrections for decay, scatter, and attenuation.
Three-dimensional volumes of interest were delineated applying fixed thresholding at 35% of the measured maximum intensity. Standardized uptake values (SUV = [MBq detected activity/mL tissue]/[MBq injected activity/g body weight], […]) were determined in selected volumes of interest, among these PD-L1 and mock tumors.
14. In vivo: PET- SUV data
Standardized uptake values (SUVmax)
Supplementary table 1: In vivo standardized uptake values (SUVmax ± standard deviation) of 64Cu-labeled third series compounds [64Cu]Cu-1-6 at 1.5 (1–2), 4.5 (4–5) and 24.5 (24–25) hours
post injection (p.i.). Compounds used for blocking are described for each tracer and were intravenously injected in sterile saline at stated time before the radiotracer. Animals designated for
tracer-only received matched type and volume of vehicle at the same time.

[2] = Proteolytic stability in human serum, radio-HPLC; format: in vitro ADME; conditions: 37 °C, 1 h
Protocol: Potential degradation of the ^64Cu-labeled radiotracers by proteolysis was investigated by incubation in human serum at 37 °C for up to 48 h. At three different time points (1, 24, and 48 h), a sample was withdrawn, and serum proteins were precipitated. The radio-HPLC chromatograms of all ^64Cu-labeled radiotracers (Figure S111A–D, system D) show a major peak at ∼6.4–6.7 min indicating the radiotracers. After 1 h, the radiotracers [^64Cu]Cu-3–6 are 94.1, 98.3, 94.0, and 96.3% intact, respectively.
Similar to PBS stability studies, the mixture containing the radiolabeled compound was diluted 1:10 with human serum. The solution was incubated at 37 °C with shaking at 300 rpm. At each time point (1, 24, and 48 h), an aliquot was withdrawn and added to a double amount of “supersol” (water containing 20% v/v EtOH, 5% v/v 5 mM aqueous EDTA, 0.5% v/v Triton X-100, 0.1% m/v saponin, 0.05% v/v 0.5 mM aqueous o-phenanthroline) to precipitate serum proteins. The suspension was cooled on ice for 5 min and then centrifugated for 5 min at 12,000g. A small amount of the supernatant was analyzed by radio-HPLC (PerkinElmer, Massachusetts, United States system D, Supporting Information). Evaluation and graphical plotting were performed with OriginPro 9.0.

[3] = target: T1, PD-L1 (Homo sapiens, UniProt Q9NZQ7); experiment: Real-time radioligand binding (LigandTracer) on PC3 PD-L1 cells; conditions: for Kd: real-time binding
T1 construct: expressed in transfected cells; host or cells: PC3 cells (human prostate carcinoma), stably transduced
T1 sequence (Q9NZQ7 19-290): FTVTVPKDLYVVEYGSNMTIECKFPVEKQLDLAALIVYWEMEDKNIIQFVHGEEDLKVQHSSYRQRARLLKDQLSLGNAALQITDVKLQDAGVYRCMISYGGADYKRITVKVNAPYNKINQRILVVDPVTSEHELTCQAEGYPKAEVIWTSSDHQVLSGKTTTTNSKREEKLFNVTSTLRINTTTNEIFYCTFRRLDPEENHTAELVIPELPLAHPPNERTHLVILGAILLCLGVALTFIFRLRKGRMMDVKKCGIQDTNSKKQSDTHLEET
Protocol: Real-time radioligand binding using the ligand tracer platform was performed, similar to our previously reported tracer candidates. As we aimed at reducing the albumin binding of the herein presented compounds, we performed measurements in the presence or absence of a mouse physiological concentration of BSA (2.5 g/dL).
For real-time binding to assess kinetics (association rate constant ka and dissociation rate constant kd) and dissociation constant (KD), LigandTracer (Yellow, Ridgeview Instruments AB, Sweden) was employed. Approximately 1.2 × 10^6 cells (in 3 mL medium) were seeded to one side of a Petri dish (Nunc) 1 day prior to experiments as described before.[45] Binding was then performed at room temperature (using CO2-independent medium, Gibco #18045088, Thermo Fisher Germany) with or without BSA (2.5%). First, association was determined by incubation with two concentrations (10 and 40 nM, 90 min each) of the ^64Cu-labeled PD-L1 ligands. Dissociation was then assessed by replacement with fresh medium for at least 2 h. Data were acquired in decay-corrected counts per second (CPS), and binding data were then evaluated using TraceDrawer (1.9.2, Ridgeview Instruments AB, Sweden). Traces were inspected for spikes and irregularities and then normalized to their own baseline (=0%) and highest value (=100%). Data were then fitted using a one-to-one interaction, accounting for the bulk effect.

[4] = Small-animal PET, excretion pattern; format: in vivo, mouse; conditions: PET 0–2, 4–5 and 24–25 h p.i., i.v.
Protocol: Time points of PET imaging were 0–2, 4–5, and 24–25 h post injection (p.i.).

[5] = Radiotracer production data: stability of the product to in vivo experiments; format: physicochemical
[6] = 1–2 h (1.5 h) p.i., blocker: Cu-3 1000 nmol 4, Cu-4 500/1000 nmol 4, Cu-5 100 nmol 5, Cu-6 250 nmol BMS-1166
[7] = 4–5 h (4.5 h) p.i., blocker: Cu-3 1000 nmol 4, Cu-4 500/1000 nmol 4, Cu-5 100 nmol 5, Cu-6 250 nmol BMS-1166
[8] = 24–25 h (24.5 h) p.i., blocker: Cu-1, Cu-2 100 nmol unlabeled compound, Cu-3 1000 nmol 4, Cu-4 500/1000 nmol 4, Cu-5 100 nmol 5, Cu-6 250 nmol BMS-1166
[9] = medium only (no BSA), n = 2, mean ± S.D.
[10] = medium only (no BSA), n = 2, mean ± S.D., room temperature

Row | Structure (SMILES) | blocking effect: % change of SUVmax in PD-L1 tumor vs tracer-only [1, 6] [%] | % change of SUVmax of the PD-L1 expressing tumor over the mock tumor ([1]; 1–2 h p.i.) [%] | SUVmax PC3 PD-L1 overexpressing tumor ([1]; 1.5 (1–2) hours p.i.) | SUVmax PC3 PD-L1 overexpressing tumor +block ([1]; 1.5 (1–2) hours p.i.) | blocking effect: % change of SUVmax in PD-L1 tumor vs tracer-only [1, 7] | % change of SUVmax of the PD-L1 expressing tumor over the mock tumor ([1]; 4–5 h p.i.) [%] | SUVmax PC3 PD-L1 overexpressing tumor ([1]; 4.5 (4–5) hours p.i.) | SUVmax PC3 PD-L1 overexpressing tumor +block ([1]; 4.5 (4–5) hours p.i.) | blocking effect: % change of SUVmax in PD-L1 tumor vs tracer-only [1, 8] [%] | % change of SUVmax of the PD-L1 expressing tumor over the mock tumor ([1]; 24–25 h p.i.) [%] | SUVmax PC3 PD-L1 overexpressing tumor ([1]; 24.5 (24–25) hours p.i.) | SUVmax PC3 PD-L1 overexpressing tumor +block ([1]; 24.5 (24–25) hours p.i.) | intact radiotracer in human serum after 1 h [2] [%] | Bmax [normalized (%)] ([3]; medium + 2.5% BSA, n = 1) [%] | ka (association rate constant) ([3]; medium + 2.5% BSA, n = 1) [M/s] | Bmax [normalized (%)] [3, 9] [%] | ka (association rate constant) [3, 10] | Kd ([3]; medium + 2.5% BSA, n = 1) [nM] | Kd [3, 9] | excretion / clearance pattern (PET) [4] | other results
1 | Cc1c(COc2cc(OCc3cncc(S(C)(=O)=O)c3)c(CN[C@@H](CS(=O)(=O)O)C(=O)NCCS(=O)(=O)O)cc2Cl)cccc1-c1cccc(OCc2cn(CCCN3CCN(C(=O)[C@H](CS(=O)(=O)O)NC(=O)CC[C@H](C(=O)O)N4CCN(CC(=O)O)CCN(CC(=O)O)CC4)CC3)nn2)c1C.[64Cu+2] [[^64Cu]Cu-3] | −71 | 311 | 3.5 | 1.0 ± 0.1 | −73% | 372 | 2.6 ± 0.1 | 0.7 ± 0.3 | −52 | 93 | 1.35 | 0.65 ± 0.05 | 94.1 | 46.6 | 2970 | 95.9 ± 6.49 | (6.59 ± 0.50) × 10^3 (M s)^−1 | 54.3 | 21 nM and 20.9 nM | predominantly a fast renal and lower hepatobiliary clearance | SUVmax PC3 PD-L1 overexpressing tumor ([1]; 1.5 (1–2) hours p.i., listed as [64Cu]Cu-3): 3.5 ± 0.2; SUVmax PC3 PD-L1 overexpressing tumor ([1]; 24.5 (24–25) hours p.i., listed as [64Cu]Cu-3): 1.35 ± 0.15; blocking effect of BMS-1166 on SUVmax / tumor uptake ([1]; any time point, Cu-3: 750 nmol BMS-1166 intraperitoneally 60 min prior, Cu-6: 250 nmol BMS-1166 5 min before): no effect; Stability of the product to in vivo experiments [5]: > 99%
2 | Cc1c(COc2cc(OCc3cncc(S(C)(=O)=O)c3)c(CN[C@@H](CS(=O)(=O)O)C(=O)NCCP(=O)(O)O)cc2Cl)cccc1-c1cccc(OCc2cn(CCCN3CCN(C(=O)CC[C@H](C(=O)O)N4CCN(CC(=O)O)CCN(CC(=O)O)CC4)CC3)nn2)c1C.[64Cu+2] [[^64Cu]Cu-4] | −57 | 146 | 1.97 ± 0.23 | 0.85 ± 0.05 | −13% and −12% | 166 | 1.2 ± 0.4 | 1.05 ± 0.35 | −45 | 60 | 2.0 ± 0.1 | 1.1 ± 0.1 | 98.3 | 883 | 230 | 846 ± 451 | (0.56 ± 0.35) × 10^3 (M s)^−1 | 744 | 201 ± 149 nM | almost exclusive hepatobiliary elimination; also recorded: primarily hepatobiliary clearance | Stability of the product to in vivo experiments [5]: > 99%
